# According to ChEMBL document CHEMBL2086231, “Novel pleuromutilin derivatives as antibacterial agents: synthesis, biological evaluation and molecular docking studies” (2012):
# System: Staphylococcus aureus
# Experiment: Antibacterial activity against methicillin-sensitive Staphylococcus aureus isolate cpu0211 after 18 to 20 hrs by agar dilution method
# Format: functional
row,SMILES,MIC [µg/mL]
1,C=C[C@]1(C)C[C@@H](OC(=O)CSCc2csc(NC(=O)CN3CCCC3)n2)[C@]2(C)[C@H](C)CC[C@]3(CCC(=O)[C@H]32)[C@@H](C)[C@@H]1O,0.125
2,C=C[C@]1(C)C[C@@H](OC(=O)CSCc2csc(NC(=O)CN3CCCCC3)n2)[C@]2(C)[C@H](C)CC[C@]3(CCC(=O)[C@H]32)[C@@H](C)[C@@H]1O,0.125

# System: Staphylococcus aureus
# Experiment: Antibacterial activity against methicillin-sensitive Staphylococcus aureus isolate cpu0587 after 18 to 20 hrs by agar dilution method
# Format: functional
row,SMILES,MIC [µg/mL]
1,C=C[C@]1(C)C[C@@H](OC(=O)CSCc2csc(NC(=O)CN3CCCC3)n2)[C@]2(C)[C@H](C)CC[C@]3(CCC(=O)[C@H]32)[C@@H](C)[C@@H]1O,0.125
2,C=C[C@]1(C)C[C@@H](OC(=O)CSCc2csc(NC(=O)CN3CCCCC3)n2)[C@]2(C)[C@H](C)CC[C@]3(CCC(=O)[C@H]32)[C@@H](C)[C@@H]1O,2

# System: Staphylococcus aureus
# Experiment: Antibacterial activity against methicillin-sensitive Staphylococcus aureus isolate cpu1044 after 18 to 20 hrs by agar dilution method
# Format: functional
row,SMILES,MIC [µg/mL]
1,C=C[C@]1(C)C[C@@H](OC(=O)CSCc2csc(NC(=O)CN3CCCC3)n2)[C@]2(C)[C@H](C)CC[C@]3(CCC(=O)[C@H]32)[C@@H](C)[C@@H]1O,0.25
2,C=C[C@]1(C)C[C@@H](OC(=O)CSCc2csc(NC(=O)CN3CCCCC3)n2)[C@]2(C)[C@H](C)CC[C@]3(CCC(=O)[C@H]32)[C@@H](C)[C@@H]1O,0.125

# System: Staphylococcus aureus
# Experiment: Antibacterial activity against methicillin-sensitive Staphylococcus aureus isolate cpu1344 after 18 to 20 hrs by agar dilution method
# Format: functional
row,SMILES,MIC [µg/mL]
1,C=C[C@]1(C)C[C@@H](OC(=O)CSCc2csc(NC(=O)CN3CCCC3)n2)[C@]2(C)[C@H](C)CC[C@]3(CCC(=O)[C@H]32)[C@@H](C)[C@@H]1O,0.25
2,C=C[C@]1(C)C[C@@H](OC(=O)CSCc2csc(NC(=O)CN3CCCCC3)n2)[C@]2(C)[C@H](C)CC[C@]3(CCC(=O)[C@H]32)[C@@H](C)[C@@H]1O,0.0625

# System: Staphylococcus aureus
# Experiment: Antibacterial activity against methicillin-resistant Staphylococcus aureus isolate cpu0446 after 18 to 20 hrs by agar dilution method
# Format: functional
row,SMILES,MIC [µg/mL]
1,C=C[C@]1(C)C[C@@H](OC(=O)CSCc2csc(NC(=O)CN3CCCC3)n2)[C@]2(C)[C@H](C)CC[C@]3(CCC(=O)[C@H]32)[C@@H](C)[C@@H]1O,0.25
2,C=C[C@]1(C)C[C@@H](OC(=O)CSCc2csc(NC(=O)CN3CCCCC3)n2)[C@]2(C)[C@H](C)CC[C@]3(CCC(=O)[C@H]32)[C@@H](C)[C@@H]1O,0.5

# System: Staphylococcus aureus
# Experiment: Antibacterial activity against methicillin-resistant Staphylococcus aureus isolate cpu0887 after 18 to 20 hrs by agar dilution method
# Format: functional
row,SMILES,MIC [µg/mL]
1,C=C[C@]1(C)C[C@@H](OC(=O)CSCc2csc(NC(=O)CN3CCCC3)n2)[C@]2(C)[C@H](C)CC[C@]3(CCC(=O)[C@H]32)[C@@H](C)[C@@H]1O,0.5
2,C=C[C@]1(C)C[C@@H](OC(=O)CSCc2csc(NC(=O)CN3CCCCC3)n2)[C@]2(C)[C@H](C)CC[C@]3(CCC(=O)[C@H]32)[C@@H](C)[C@@H]1O,0.0625

# System: Staphylococcus aureus
# Experiment: Antibacterial activity against methicillin-resistant Staphylococcus aureus isolate cpu1098 after 18 to 20 hrs by agar dilution method
# Format: functional
row,SMILES,MIC [µg/mL]
1,C=C[C@]1(C)C[C@@H](OC(=O)CSCc2csc(NC(=O)CN3CCCC3)n2)[C@]2(C)[C@H](C)CC[C@]3(CCC(=O)[C@H]32)[C@@H](C)[C@@H]1O,0.25
2,C=C[C@]1(C)C[C@@H](OC(=O)CSCc2csc(NC(=O)CN3CCCCC3)n2)[C@]2(C)[C@H](C)CC[C@]3(CCC(=O)[C@H]32)[C@@H](C)[C@@H]1O,0.25

# System: Staphylococcus aureus
# Experiment: Antibacterial activity against methicillin-resistant Staphylococcus aureus isolate cpu3256 after 18 to 20 hrs by agar dilution method
# Format: functional
row,SMILES,MIC [µg/mL]
1,C=C[C@]1(C)C[C@@H](OC(=O)CSCc2csc(NC(=O)CN3CCCC3)n2)[C@]2(C)[C@H](C)CC[C@]3(CCC(=O)[C@H]32)[C@@H](C)[C@@H]1O,0.25
2,C=C[C@]1(C)C[C@@H](OC(=O)CSCc2csc(NC(=O)CN3CCCCC3)n2)[C@]2(C)[C@H](C)CC[C@]3(CCC(=O)[C@H]32)[C@@H](C)[C@@H]1O,0.25

# System: Staphylococcus epidermidis
# Experiment: Antibacterial activity against methicillin-sensitive Staphylococcus epidermidis isolate cpu0315 after 18 to 20 hrs by agar dilution method
# Format: functional
row,SMILES,MIC [µg/mL]
1,C=C[C@]1(C)C[C@@H](OC(=O)CSCc2csc(NC(=O)CN3CCCC3)n2)[C@]2(C)[C@H](C)CC[C@]3(CCC(=O)[C@H]32)[C@@H](C)[C@@H]1O,2
2,C=C[C@]1(C)C[C@@H](OC(=O)CSCc2csc(NC(=O)CN3CCCCC3)n2)[C@]2(C)[C@H](C)CC[C@]3(CCC(=O)[C@H]32)[C@@H](C)[C@@H]1O,0.0625

# System: Staphylococcus epidermidis
# Experiment: Antibacterial activity against methicillin-sensitive Staphylococcus epidermidis isolate cpu0347 after 18 to 20 hrs by agar dilution method
# Format: functional
row,SMILES,MIC [µg/mL]
1,C=C[C@]1(C)C[C@@H](OC(=O)CSCc2csc(NC(=O)CN3CCCC3)n2)[C@]2(C)[C@H](C)CC[C@]3(CCC(=O)[C@H]32)[C@@H](C)[C@@H]1O,0.25
2,C=C[C@]1(C)C[C@@H](OC(=O)CSCc2csc(NC(=O)CN3CCCCC3)n2)[C@]2(C)[C@H](C)CC[C@]3(CCC(=O)[C@H]32)[C@@H](C)[C@@H]1O,0.0625

# System: Staphylococcus epidermidis
# Experiment: Antibacterial activity against methicillin-sensitive Staphylococcus epidermidis isolate cpu2089 after 18 to 20 hrs by agar dilution method
# Format: functional
row,SMILES,MIC [µg/mL]
1,C=C[C@]1(C)C[C@@H](OC(=O)CSCc2csc(NC(=O)CN3CCCC3)n2)[C@]2(C)[C@H](C)CC[C@]3(CCC(=O)[C@H]32)[C@@H](C)[C@@H]1O,0.125
2,C=C[C@]1(C)C[C@@H](OC(=O)CSCc2csc(NC(=O)CN3CCCCC3)n2)[C@]2(C)[C@H](C)CC[C@]3(CCC(=O)[C@H]32)[C@@H](C)[C@@H]1O,0.125

# System: Staphylococcus epidermidis
# Experiment: Antibacterial activity against methicillin-sensitive Staphylococcus epidermidis isolate cpu1561 after 18 to 20 hrs by agar dilution method
# Format: functional
row,SMILES,MIC [µg/mL]
1,C=C[C@]1(C)C[C@@H](OC(=O)CSCc2csc(NC(=O)CN3CCCC3)n2)[C@]2(C)[C@H](C)CC[C@]3(CCC(=O)[C@H]32)[C@@H](C)[C@@H]1O,0.5
2,C=C[C@]1(C)C[C@@H](OC(=O)CSCc2csc(NC(=O)CN3CCCCC3)n2)[C@]2(C)[C@H](C)CC[C@]3(CCC(=O)[C@H]32)[C@@H](C)[C@@H]1O,0.0625

# System: Staphylococcus epidermidis
# Experiment: Antibacterial activity against methicillin-resistant Staphylococcus epidermidis isolate cpu2623 after 18 to 20 hrs by agar dilution method
# Format: functional
row,SMILES,MIC [µg/mL]
1,C=C[C@]1(C)C[C@@H](OC(=O)CSCc2csc(NC(=O)CN3CCCC3)n2)[C@]2(C)[C@H](C)CC[C@]3(CCC(=O)[C@H]32)[C@@H](C)[C@@H]1O,0.5
2,C=C[C@]1(C)C[C@@H](OC(=O)CSCc2csc(NC(=O)CN3CCCCC3)n2)[C@]2(C)[C@H](C)CC[C@]3(CCC(=O)[C@H]32)[C@@H](C)[C@@H]1O,0.0625

# System: Staphylococcus epidermidis
# Experiment: Antibacterial activity against methicillin-resistant Staphylococcus epidermidis isolate cpu3889 after 18 to 20 hrs by agar dilution method
# Format: functional
row,SMILES,MIC [µg/mL]
1,C=C[C@]1(C)C[C@@H](OC(=O)CSCc2csc(NC(=O)CN3CCCC3)n2)[C@]2(C)[C@H](C)CC[C@]3(CCC(=O)[C@H]32)[C@@H](C)[C@@H]1O,0.25
2,C=C[C@]1(C)C[C@@H](OC(=O)CSCc2csc(NC(=O)CN3CCCCC3)n2)[C@]2(C)[C@H](C)CC[C@]3(CCC(=O)[C@H]32)[C@@H](C)[C@@H]1O,0.0625

# System: Staphylococcus epidermidis
# Experiment: Antibacterial activity against methicillin-resistant Staphylococcus epidermidis isolate cpu3569 after 18 to 20 hrs by agar dilution method
# Format: functional
row,SMILES,MIC [µg/mL]
1,C=C[C@]1(C)C[C@@H](OC(=O)CSCc2csc(NC(=O)CN3CCCC3)n2)[C@]2(C)[C@H](C)CC[C@]3(CCC(=O)[C@H]32)[C@@H](C)[C@@H]1O,0.5
2,C=C[C@]1(C)C[C@@H](OC(=O)CSCc2csc(NC(=O)CN3CCCCC3)n2)[C@]2(C)[C@H](C)CC[C@]3(CCC(=O)[C@H]32)[C@@H](C)[C@@H]1O,0.0625

# System: Staphylococcus epidermidis
# Experiment: Antibacterial activity against methicillin-resistant Staphylococcus epidermidis isolate cpu2736 after 18 to 20 hrs by agar dilution method
# Format: functional
row,SMILES,MIC [µg/mL]
1,C=C[C@]1(C)C[C@@H](OC(=O)CSCc2csc(NC(=O)CN3CCCC3)n2)[C@]2(C)[C@H](C)CC[C@]3(CCC(=O)[C@H]32)[C@@H](C)[C@@H]1O,0.5
2,C=C[C@]1(C)C[C@@H](OC(=O)CSCc2csc(NC(=O)CN3CCCCC3)n2)[C@]2(C)[C@H](C)CC[C@]3(CCC(=O)[C@H]32)[C@@H](C)[C@@H]1O,0.0625

# System: Staphylococcus epidermidis
# Experiment: Ratio of amoxicillin MIC to compound MIC for methicillin-sensitive Staphylococcus epidermidis isolate cpu0315
# Format: functional
row,SMILES,Ratio
1,C=C[C@]1(C)C[C@@H](OC(=O)CSCc2csc(NC(=O)CN3CCCCC3)n2)[C@]2(C)[C@H](C)CC[C@]3(CCC(=O)[C@H]32)[C@@H](C)[C@@H]1O,8

# System: Staphylococcus epidermidis
# Experiment: Ratio of amoxicillin MIC to compound MIC for methicillin-sensitive Staphylococcus epidermidis isolate cpu0347
# Format: functional
row,SMILES,Ratio
1,C=C[C@]1(C)C[C@@H](OC(=O)CSCc2csc(NC(=O)CN3CCCCC3)n2)[C@]2(C)[C@H](C)CC[C@]3(CCC(=O)[C@H]32)[C@@H](C)[C@@H]1O,8

# System: Staphylococcus epidermidis
# Experiment: Ratio of amoxicillin MIC to compound MIC for methicillin-sensitive Staphylococcus epidermidis isolate cpu2089
# Format: functional
row,SMILES,Ratio
1,C=C[C@]1(C)C[C@@H](OC(=O)CSCc2csc(NC(=O)CN3CCCCC3)n2)[C@]2(C)[C@H](C)CC[C@]3(CCC(=O)[C@H]32)[C@@H](C)[C@@H]1O,8

# System: Staphylococcus epidermidis
# Experiment: Ratio of amoxicillin MIC to compound MIC for methicillin-sensitive Staphylococcus epidermidis isolate cpu1561
# Format: functional
row,SMILES,Ratio
1,C=C[C@]1(C)C[C@@H](OC(=O)CSCc2csc(NC(=O)CN3CCCCC3)n2)[C@]2(C)[C@H](C)CC[C@]3(CCC(=O)[C@H]32)[C@@H](C)[C@@H]1O,8

# System: Staphylococcus aureus
# Experiment: Ratio of amoxicillin MIC to compound MIC for methicillin-sensitive Staphylococcus aureus isolate cpu0211
# Format: functional
row,SMILES,Ratio
1,C=C[C@]1(C)C[C@@H](OC(=O)CSCc2csc(NC(=O)CN3CCCCC3)n2)[C@]2(C)[C@H](C)CC[C@]3(CCC(=O)[C@H]32)[C@@H](C)[C@@H]1O,8

# System: Staphylococcus aureus
# Experiment: Ratio of amoxicillin MIC to compound MIC for methicillin-sensitive Staphylococcus aureus isolate cpu0587
# Format: functional
row,SMILES,Ratio
1,C=C[C@]1(C)C[C@@H](OC(=O)CSCc2csc(NC(=O)CN3CCCCC3)n2)[C@]2(C)[C@H](C)CC[C@]3(CCC(=O)[C@H]32)[C@@H](C)[C@@H]1O,8

# System: Staphylococcus aureus
# Experiment: Ratio of amoxicillin MIC to compound MIC for methicillin-sensitive Staphylococcus aureus isolate cpu1044
# Format: functional
row,SMILES,Ratio
1,C=C[C@]1(C)C[C@@H](OC(=O)CSCc2csc(NC(=O)CN3CCCCC3)n2)[C@]2(C)[C@H](C)CC[C@]3(CCC(=O)[C@H]32)[C@@H](C)[C@@H]1O,8

# System: Staphylococcus aureus
# Experiment: Ratio of amoxicillin MIC to compound MIC for methicillin-sensitive Staphylococcus aureus isolate cpu1344
# Format: functional
row,SMILES,Ratio
1,C=C[C@]1(C)C[C@@H](OC(=O)CSCc2csc(NC(=O)CN3CCCCC3)n2)[C@]2(C)[C@H](C)CC[C@]3(CCC(=O)[C@H]32)[C@@H](C)[C@@H]1O,8
